The nature of data set [1]: Plasma protein binding in human at 0.2 ug/ml. Type of data set: ADME, cell-free. The conditions noted are these: at 0.2 µg/mL, read-out: PPB.
Data set [2] can be described thus: Half life in human. Type of data set: ADME.
Data set [3] can be described thus: Plasma protein binding in human. It is filed as ADME, cell-free. Conditions: read-out: PPB (converted).
Data set [4] in a line: Oral bioavailability in human. It is filed as ADME, organism-based. The conditions noted are these: in vivo.
A short description of data set [5]: Subcutaneous bioavailability in human. Conditions: in vivo, sc.
The nature of data set [6]: Terminal half life in human. It is filed as ADME. Conditions: read-out: beta t1/2 (converted).
Data set [7] in a line: Half life in iv dosed human. Type of data set: ADME, organism-based. The conditions noted are these: in vivo.
Data set [8] can be described thus: Half life in human at 0.3 mg/kg, iv. Type of data set: ADME, organism-based. Conditions: in vivo.
A short description of data set [9]: Terminal elimination half life in human. Type of data set: ADME.
The nature of data set [10]: Half life in human plasma. Type of data set: ADME, cell-free.
Data set [11] can be described thus: Half life in human at 0.5 mg/kg, iv. The conditions noted are these: in vivo. Type of data set: ADME, organism-based.

Numbered stars: 1 amine (or outer) side, 2 acyl side, 3 side chain; on linkers, the order of the positions; unused ones are H or OH. Bridge positions count the residues as written; N and C are the ends. Square brackets hold non-standard residues; d marks the D form. Peptide text beside a SMILES is read from it. * marks the point of attachment. 2Nal = N[C@@H](Cc1ccc2ccccc2c1)C(=O)O; Benzoyl(4-F) = O=C(c1ccc(F)cc1)*; Cit = NC(=O)NCCC[C@H](N)C(=O)O; X1 = O=C(CCC[*:2])[*:1] Bounds are passed on as bounds.

With `CSCC[C@@H]1NC(=O)[C@H](CC(C)C)NC(=O)[C@H](CCCNC(=N)N)NC(=O)[C@H](CO)NC(=O)[C@@H]2CSSC[C@@H]3NC(=O)[C@H](CO)NC(=O)CNC(=O)[C@H]([C@@H](C)O)NC(=O)[C@H](CSSC[C@H](N)C(=O)N[C@@H](CCCCN)C(=O)NCC(=O)N[C@@H](CCCCN)C(=O)NCC(=O)N[C@@H](C)C(=O)N[C@@H](CCCCN)C(=O)N2)NC(=O)[C@H](CSSC[C@@H](C(N)=O)NC(=O)[C@H](CCCCN)NC(=O)CNC(=O)[C@H](CO)NC(=O)[C@H](CCCNC(=N)N)NC3=O)NC(=O)[C@H](CC(=O)O)NC(=O)[C@H](Cc2ccc(O)cc2)NC1=O` [ZICONOTIDE], the fraction unbound at 0.2 ug/ml in data set [1] was 0.5.
For the compound `N=C(N)NCCC[C@H](NC(=O)[C@@H]1CSSC[C@H](NC(=O)[C@H](Cc2ccc3ccccc3c2)NC(=O)[C@H](CCCNC(=N)N)NC(=O)[C@H](CCCNC(=N)N)NC(=O)c2ccc(F)cc2)C(=O)N[C@@H](Cc2ccc(O)cc2)C(=O)N[C@@H](CCCNC(N)=O)C(=O)N[C@@H](CCCCN)C(=O)N[C@@H](CCCCN)C(=O)N2CCC[C@H]2C(=O)N[C@@H](Cc2ccc(O)cc2)C(=O)N[C@@H](CCCNC(=N)N)C(=O)N[C@@H](CCCNC(N)=O)C(=O)N1)C(N)=O` ({Benzoyl(4-F)}-RR[2Nal]CY[Cit]KKPYR[Cit]CR-NH2; disulfide 4-13), in data set [2], the half-life is 2 h. Further, the fraction unbound in data set [3] was < 0.01.
On to TESAMORELIN, for which the t1/2 in data set [2] amounted to 0.433 h. Further, in data set [4], the F was < 4%.
For `CC[C@H](C)[C@H](NC(=O)[C@H](CCC(=O)O)NC(=O)[C@H](CO)NC(=O)[C@@H](NC(=O)[C@@H](N)CO)C(C)C)C(=O)N[C@@H](CCC(N)=O)C(=O)N[C@@H](CC(C)C)C(=O)N[C@@H](CCSC)C(=O)N[C@@H](Cc1cnc[nH]1)C(=O)N[C@@H](CC(N)=O)C(=O)N[C@@H](CC(C)C)C(=O)NCC(=O)N[C@@H](CCCCN)C(=O)N[C@@H](Cc1cnc[nH]1)C(=O)N[C@@H](CC(C)C)C(=O)N[C@@H](CC(N)=O)C(=O)N[C@@H](CO)C(=O)N[C@@H](CCSC)C(=O)N[C@@H](CCC(=O)O)C(=O)N[C@@H](CCCN=C(N)N)C(=O)N[C@H](C(=O)N[C@@H](CCC(=O)O)C(=O)N[C@@H](Cc1c[nH]c2ccccc12)C(=O)N[C@@H](CC(C)C)C(=O)N[C@@H](CCCN=C(N)N)C(=O)N[C@@H](CCCCN)C(=O)N[C@@H](CCCCN)C(=O)N[C@@H](CC(C)C)C(=O)N[C@@H](CCC(N)=O)C(=O)N[C@@H](CC(=O)O)C(=O)N[C@H](C(=O)N[C@@H](Cc1cnc[nH]1)C(=O)N[C@@H](CC(N)=O)C(=O)N[C@@H](Cc1ccccc1)C(=O)O)C(C)C)C(C)C` [TERIPARATIDE], in data set [2], the half-life was 1 h. Besides, the subcutaneous bioavailability in [5] turned out to be 95%.
Regarding `NCCCC[C@H](NC(=O)[C@@H]1CCCN1C(=O)[C@@H]1CSSC[C@H](NC(=O)CNC(=O)CNC(=O)CN)C(=O)N[C@@H](Cc2ccc(O)cc2)C(=O)N[C@@H](Cc2ccccc2)C(=O)N[C@@H](CCC(N)=O)C(=O)N[C@@H](CC(N)=O)C(=O)N1)C(=O)NCC(N)=O` [TERLIPRESSIN], in data set [6], the half-life is 0.9 h.
With `CC[C@H](C)[C@H](NC(=O)[C@H](CO)NC(=O)[C@H](CC(N)=O)NC(=O)[C@H](CC(C)C)NC(=O)[C@H](Cc1ccc(O)cc1)NC(=O)[C@H](CCCCN)NC(=O)[C@H](CCCCN)NC(=O)[C@@H](NC(=O)[C@H](C)NC(=O)[C@H](CCSC)NC(=O)[C@H](CCC(N)=O)NC(=O)[C@H](CCCCN)NC(=O)[C@H](CCCN=C(N)N)NC(=O)[C@H](CC(C)C)NC(=O)[C@H](CCCN=C(N)N)NC(=O)[C@@H](NC(=O)[C@H](Cc1ccc(O)cc1)NC(=O)[C@H](CC(N)=O)NC(=O)[C@H](CC(=O)O)NC(=O)[C@@H](NC(=O)[C@H](Cc1ccccc1)NC(=O)[C@@H](NC(=O)[C@H](C)NC(=O)[C@H](CC(=O)O)NC(=O)[C@H](CO)NC(=O)[C@@H](N)Cc1c[nH]cn1)C(C)C)[C@@H](C)O)[C@@H](C)O)C(C)C)C(=O)N[C@@H](CC(C)C)C(=O)N[C@@H](CC(N)=O)C(N)=O`, in data set [2], the half-life was found to be 0.0167 h.
Regarding `CC[C@H](C)[C@H](NC(=O)[C@H](Cc1ccccc1)NC(=O)[C@H](CC(=O)O)NC(=O)[C@H](CCCNC(=N)N)NC(=O)[C@H](C)NC(=O)[C@H](C)NC(=O)[C@H](CC(C)C)NC(=O)[C@H](CC(N)=O)NC(=O)[C@H](CC(=O)O)NC(=O)[C@H](CC(C)C)NC(=O)[C@@H](NC(=O)[C@@H](NC(=O)[C@H](CC(N)=O)NC(=O)[C@H](CCSC)NC(=O)[C@H](CCC(=O)O)NC(=O)[C@H](CC(=O)O)NC(=O)[C@H](CO)NC(=O)[C@H](Cc1ccccc1)NC(=O)[C@H](CO)NC(=O)CNC(=O)[C@H](CC(=O)O)NC(=O)CNC(=O)[C@@H](N)Cc1c[nH]cn1)[C@@H](C)O)[C@@H](C)CC)C(=O)N[C@@H](CC(N)=O)C(=O)N[C@@H](Cc1c[nH]c2ccccc12)C(=O)N[C@@H](CC(C)C)C(=O)N[C@H](C(=O)N[C@@H](CCC(N)=O)C(=O)N[C@H](C(=O)N[C@@H](CCCCN)C(=O)N[C@H](C(=O)N[C@H](C(=O)N[C@@H](CC(=O)O)C(=O)O)[C@@H](C)O)[C@@H](C)CC)[C@@H](C)O)[C@@H](C)CC` [TEDUGLUTIDE], the half-life in data set [6] is 1.3 h. This compound also had a subcutaneous bioavailability in [5] of 88%.
Regarding `CC(=O)N[C@H](CSSC[C@H](N)C(=O)O)C(=O)N[C@H](C)C(=O)N[C@H](CCCNC(=N)N)C(=O)N[C@H](CCCNC(=N)N)C(=O)N[C@H](CCCNC(=N)N)C(=O)N[C@H](C)C(=O)N[C@H](CCCNC(=N)N)C(N)=O` [ETELCALCETIDE], the half-life in data set [7] was 72 h.
Compound VOSORITIDE came in with a t1/2 in [2] of 0.35 h.
With NESIRITIDE, in data set [8], the t1/2 was found to be 0.3 h.
On to LIXISENATIDE, for which, in data set [9], the “beta t1/2” value turned out to be 3 h.
Compound `NC(N)=NCCC[C@@H](N)C(=O)N[C@@H](CCCN=C(N)N)C(=O)N1CCC[C@H]1C(=O)N1C[C@H](O)C[C@H]1C(=O)NCC(=O)N[C@@H](Cc1cccs1)C(=O)N[C@@H](CO)C(=O)N1Cc2ccccc2C[C@@H]1C(=O)N1[C@H](C(=O)N[C@@H](CCCN=C(N)N)C(=O)O)C[C@@H]2CCCC[C@@H]21` [ICATIBANT] had a half-life in [2] of 1.4 h. In data set [5], this compound returned a subcutaneous bioavailability of 97%.
Compound `CC[C@H](C)[C@@H]1NC(=O)[C@H](Cc2ccc(OC)cc2)NC(=O)CCCSC[C@@H](C(=O)N2CCC[C@H]2C(=O)N[C@@H](CC(C)C)C(=O)NCC(N)=O)NC(=O)[C@H](CC(N)=O)NC(=O)[C@H](CCC(N)=O)NC1=O` [CARBETOCIN] (Y(Me)IQNCPLG-NH2; linker N-5 via X1) gave a half-life in [10] of 0.667 h.
`C/C=C1\NC(=O)[C@H]2CSSCC/C=C/[C@H](CC(=O)N[C@H](C(C)C)C(=O)N2)OC(=O)[C@H](C(C)C)NC1=O` [ROMIDEPSIN] showed a half-life in data set [11] of 3 h.
`CC(=O)N[C@@H](CCCNC(=N)N)C(=O)N[C@H]1CSSC[C@@H](C(N)=O)NC(=O)[C@H](Cc2c[nH]c3ccccc23)NC(=O)[C@H](CCCNC(=N)N)NC(=O)[C@@H](Cc2ccccc2)NC(=O)[C@H](Cc2c[nH]cn2)NC(=O)[C@@H](C)NC1=O` [SETMELANOTIDE]: the half-life in data set [2] was 11 h. The fraction unbound in data set [3] was 0.209.
